Laboratory results published in patent US20230159436A1, “APPLICATIONS OF AMIDE ANALOGS OF TRITERPENES IN CURES OF CANCER AND OTHER DISEASES” (Pacific Arrow Limited, priority 2021, published 2023).

System: U2OS, H460, HTB-9, ES2, HCT116, Capan, OVCAR3, DU145, SK-Mel-5, KB, A498, MCF-7, HepG2, T98G, K562, HeLa
Assay: MTT Cytotoxic Assay of reaction products and isolated compounds
Format: cell-based
Text: The peaks, fractions and compounds are selected according to the activities of times studies and the changes of peaks. Selecting the HPLC fractions for isolation is according to the cytotoxic activity of the reaction product obtained at a specific time. The compounds having strong to weak activities are selected and isolated. Selecting the HPLC fractions for isolation may be according to the cytotoxic activity of times studies and the change of peaks. The anti cancer activities are the MTT studies of bone (U2OS), lung (H460), bladder (HTB-9), ovary (ES2), colon (HCT116), pancreas (Capan), ovary (OVCAR3), prostate (DU145), skin (SK-Mel-5), mouth (KB), kidney (A498), breast (MCF-7), liver (HepG2), brain (T98G), luekemia (K562), cervix (HeLa).
Esterification, amidation, amination, or sulfonamidation of compound (A), (B), (C), (D1), (D2), (E), (F), (G), (H1), (H2), E4A, E4A2Y, E4D, E4D1, (P1), P(2), terpene, isoprene, triterpenes, hydroxylated triterpenes, with acyl halide, wherein the halide comprise chloride, bromide, fluoride and iodide, wherein the acyl halide comprise acyl chloride, wherein acyl chloride comprise tigloyl chloride, angeloyl chloride, acetyl chloride, crotonoyl chloride, 3,3-dimethylartyloyl chloride, senecioyl chloride, cinnamoyl chloride, pentenoyl chloride, hexanoyl chloride, benzoyl chloride, ethylbutyryl chloride, propionyl chloride, 2-propenoyl chloride, isobutyryl chloride, butyryl chloride, (2E)-2-pentenoyl chloride, 4-Pentenoyl chloride, 5-hexenoyl chloride, heptanoyl chloride, octanoyl chloride, nonanoyl chloride, decanoyl chloride, Lauroyl chloride, myristoyl chloride, oleoyl chloride. The compounds vary in composition when the time or temperature of the reaction is changed. The peaks, fractions and compounds are selected according to the activities of times studies and the changes of peaks. The compounds having strong to weak activities are selected and isolated. The anti cancer activities (Cytotoxic Assay) are the MTT studies of bone (U2OS), lung (H460), bladder (HTB-9), ovary (ES2), colon (HCT116), pancreas (Capan), ovary (OVCAR3), prostate (DU145), skin (SK-Mel-5), mouth (KB), kidney (A498), breast (MCF-7), liver (HepG2), brain (T98G), luekemia (K562), cervix (HeLa). The active esterification, amidation, amination, or sulfonamidation products are purified with HPLC. The reaction product of mixtures and individual compounds are tested with MTT Cytotoxic Assay. Details of method are in Experiment 3 of the present application. A second esterification of compound can be selected from the above experiment results to produce new active compounds. A partial esterification compound is selected from the above experiments to perform a second or repeated with a third esterification with different acyl chloride in order to produce new active compounds with the experiments in the present application. The active compounds of this invention are triterpenes in form of amine, sulfonamides, amide, and urea analogs, providing extremely stable activity in solution. They prolong the activities and duration of drug in a subject.
Cells. HTB-9 (bladder), HeLa-S3 (cervix), DU145 (prostate), H460 (lung), MCF-7 (breast), K562 (leukemia), HCT116 (colon), HepG2 (liver), U2OS (bone), T98G (brain), SK-MEL-5 (Skin) and OVCAR 3, ES2 (ovary), Pancreas (Capan), Mouth (KB), Kidney (A498).
MTT Assay. The procedure for MTT assay followed the method described by Carmichael et al. (1987) with modifications. The cells were seeded into a 96-well plate at for 24 hours before drug-treatment. The cells were then exposed to the drugs for 48, 72, or 96 hours. After the drug-treatment, MTT (0.5 mg/mL) was added to cultures and incubated for an hour. The formazan (product of the reduction of tetrazolium by viable cells) formed and was dissolved with DMSO and the O.D. at 490 nm, and was measured by an ELISA reader. The MTT level of the cells before drug-treatment was also measured (T0). […]

SMILES	Cytotoxicity activity
CC=C(C)C(=O)NCC1(C)C(N)CCC2(C)C1CCC1(C)C2CC=C2C3CC(C)(C)C(N)C(N)C3(CNC(=O)C(C)=CC)C(N)CC21C (stereo not shown) [AA1]	moderate
CC=C(C)C(=O)NCC1(C)C(O)CCC2(C)C1CCC1(C)C2CC=C2C3CC(C)(C)C(O)C(O)C3(CNC(=O)C(C)=CC)C(O)CC21C (stereo not shown) [AA2]	strong
CC=C(C)C(=O)NCC1(C)C(N)CCC2(C)C1CCC1(C)C2CC=C2C3CC(C)(C)C(NC(=O)C(C)=CC)C(N)C3(CN)C(N)CC21C (stereo not shown) [AA3]	moderate
CC=C(C)C(=O)NCC1(C)C(N)CCC2(C)C1CCC1(C)C2CC=C2C3CC(C)(C)C(NC(=O)C(C)=CC)C(N)C3(CNC(=O)C(C)=CC)C(N)CC21C (stereo not shown) [AA4]	weak
CC(C)=CC(=O)NCC1(C)C(N)CCC2(C)C1CCC1(C)C2CC=C2C3CC(C)(C)C(N)C(N)C3(CNC(=O)C=C(C)C)C(N)CC21C (stereo not shown) [BB1]	moderate
CC(C)=CC(=O)NCC1(C)C(O)CCC2(C)C1CCC1(C)C2CC=C2C3CC(C)(C)C(O)C(O)C3(CNC(=O)C=C(C)C)C(O)CC21C (stereo not shown) [BB2]	strong
CC(C)=CC(=O)NCC1(C)C(N)CCC2(C)C1CCC1(C)C2CC=C2C3CC(C)(C)C(NC(=O)C=C(C)C)C(N)C3(CN)C(N)CC21C (stereo not shown) [BB3]	moderate
CC(C)=CC(=O)NCC1(C)C(N)CCC2(C)C1CCC1(C)C2CC=C2C3CC(C)(C)C(NC(=O)C=C(C)C)C(N)C3(CNC(=O)C=C(C)C)C(N)CC21C (stereo not shown) [BB4]	weak
C=CCCC(=O)NCC1(C)C(N)CCC2(C)C1CCC1(C)C2CC=C2C3CC(C)(C)C(N)C(N)C3(CNC(=O)CCC=C)C(N)CC21C (stereo not shown) [CC1]	moderate
C=CCCC(=O)NCC1(C)C(O)CCC2(C)C1CCC1(C)C2CC=C2C3CC(C)(C)C(O)C(O)C3(CNC(=O)CCC=C)C(O)CC21C (stereo not shown) [CC2]	strong
C=CCCC(=O)NCC1(C)C(N)CCC2(C)C1CCC1(C)C2CC=C2C3CC(C)(C)C(NC(=O)CCC=C)C(N)C3(CN)C(N)CC21C (stereo not shown) [CC3]	moderate
C=CCCC(=O)NCC1(C)C(N)CCC2(C)C1CCC1(C)C2CC=C2C3CC(C)(C)C(NC(=O)CCC=C)C(N)C3(CNC(=O)CCC=C)C(N)CC21C (stereo not shown) [CC4]	weak
CCCCCC(=O)NCC1(C)C(N)CCC2(C)C1CCC1(C)C2CC=C2C3CC(C)(C)C(N)C(N)C3(CNC(=O)CCCCC)C(N)CC21C (stereo not shown) [DD1]	moderate
CCCCCC(=O)NCC1(C)C(O)CCC2(C)C1CCC1(C)C2CC=C2C3CC(C)(C)C(O)C(O)C3(CNC(=O)CCCCC)C(O)CC21C (stereo not shown) [DD2]	strong
CCCCCC(=O)NCC1(C)C(N)CCC2(C)C1CCC1(C)C2CC=C2C3CC(C)(C)C(NC(=O)CCCCC)C(N)C3(CN)C(N)CC21C (stereo not shown) [DD3]	moderate
CCCCCC(=O)NCC1(C)C(N)CCC2(C)C1CCC1(C)C2CC=C2C3CC(C)(C)C(NC(=O)CCCCC)C(N)C3(CNC(=O)CCCCC)C(N)CC21C (stereo not shown) [DD4]	weak
CCC(CC)C(=O)NCC1(C)C(N)CCC2(C)C1CCC1(C)C2CC=C2C3CC(C)(C)C(N)C(N)C3(CNC(=O)C(CC)CC)C(N)CC21C (stereo not shown) [EE1]	moderate
CCC(CC)C(=O)NCC1(C)C(O)CCC2(C)C1CCC1(C)C2CC=C2C3CC(C)(C)C(O)C(O)C3(CNC(=O)C(CC)CC)C(O)CC21C (stereo not shown) [EE2]	strong
CCC(CC)C(=O)NCC1(C)C(N)CCC2(C)C1CCC1(C)C2CC=C2C3CC(C)(C)C(NC(=O)C(CC)CC)C(N)C3(CN)C(N)CC21C (stereo not shown) [EE3]	moderate
CCC(CC)C(=O)NCC1(C)C(N)CCC2(C)C1CCC1(C)C2CC=C2C3CC(C)(C)C(NC(=O)C(CC)CC)C(N)C3(CNC(=O)C(CC)CC)C(N)CC21C (stereo not shown) [EE4]	weak

SMILES	Cytotoxicity activity
CC(=O)NCC1(C)C(N)CCC2(C)C1CCC1(C)C2CC=C2C3CC(C)(C)C(N)C(N)C3(CNC(C)=O)C(N)CC21C (stereo not shown) [HH1]	moderate
CC(=O)NCC1(C)C(O)CCC2(C)C1CCC1(C)C2CC=C2C3CC(C)(C)C(O)C(O)C3(CNC(C)=O)C(O)CC21C (stereo not shown) [HH2]	strong
CC(=O)NCC1(C)C(N)CCC2(C)C1CCC1(C)C2CC=C2C3CC(C)(C)C(NC(C)=O)C(N)C3(CN)C(N)CC21C (stereo not shown) [HH3]	moderate
CC(=O)NCC1(C)C(N)CCC2(C)C1CCC1(C)C2CC=C2C3CC(C)(C)C(NC(C)=O)C(N)C3(CNC(C)=O)C(N)CC21C (stereo not shown) [HH4]	weak
CC=CC(=O)NCC1(C)C(O)CCC2(C)C1CCC1(C)C2CC=C2C3CC(C)(C)C(O)C(O)C3(CNC(=O)C=CC)C(O)CC21C (stereo not shown) [I I2]	strong
CC=CC(=O)NCC1(C)C(N)CCC2(C)C1CCC1(C)C2CC=C2C3CC(C)(C)C(NC(=O)C=CC)C(N)C3(CN)C(N)CC21C (stereo not shown) [I I3]	moderate
CC=CC(=O)NCC1(C)C(N)CCC2(C)C1CCC1(C)C2CC=C2C3CC(C)(C)C(N)C(N)C3(CNC(=O)C=CC)C(N)CC21C (stereo not shown) [II 1]	moderate
CC=CC(=O)NCC1(C)C(N)CCC2(C)C1CCC1(C)C2CC=C2C3CC(C)(C)C(NC(=O)C=CC)C(N)C3(CNC(=O)C=CC)C(N)CC21C (stereo not shown) [II 4]	weak
CC1(C)CC2C3=CCC4C5(C)CCC(N)C(C)(CNC(=O)C=Cc6ccccc6)C5CCC4(C)C3(C)CC(N)C2(CNC(=O)C=Cc2ccccc2)C(N)C1N (stereo not shown) [JJ1]	moderate
CC1(C)CC2C3=CCC4C5(C)CCC(O)C(C)(CNC(=O)C=Cc6ccccc6)C5CCC4(C)C3(C)CC(O)C2(CNC(=O)C=Cc2ccccc2)C(O)C1O (stereo not shown) [JJ2]	strong
CC1(C)CC2C3=CCC4C5(C)CCC(N)C(C)(CNC(=O)C=Cc6ccccc6)C5CCC4(C)C3(C)CC(N)C2(CN)C(N)C1NC(=O)C=Cc1ccccc1 (stereo not shown) [JJ3]	moderate
CC1(C)CC2C3=CCC4C5(C)CCC(N)C(C)(CNC(=O)C=Cc6ccccc6)C5CCC4(C)C3(C)CC(N)C2(CNC(=O)C=Cc2ccccc2)C(N)C1NC(=O)C=Cc1ccccc1 (stereo not shown) [JJ4]	weak
CC1(C)CC2C3=CCC4C5(C)CCC(N)C(C)(CNC(=O)c6ccccc6)C5CCC4(C)C3(C)CC(N)C2(CNC(=O)c2ccccc2)C(N)C1N (stereo not shown) [KK1]	moderate
CC1(C)CC2C3=CCC4C5(C)CCC(O)C(C)(CNC(=O)c6ccccc6)C5CCC4(C)C3(C)CC(O)C2(CNC(=O)c2ccccc2)C(O)C1O (stereo not shown) [KK2]	strong
CC1(C)CC2C3=CCC4C5(C)CCC(N)C(C)(CNC(=O)c6ccccc6)C5CCC4(C)C3(C)CC(N)C2(CN)C(N)C1NC(=O)c1ccccc1 (stereo not shown) [KK3]	moderate
CC1(C)CC2C3=CCC4C5(C)CCC(N)C(C)(CNC(=O)c6ccccc6)C5CCC4(C)C3(C)CC(N)C2(CNC(=O)c2ccccc2)C(N)C1NC(=O)c1ccccc1 (stereo not shown) [KK4]	weak
CCC(=O)NCC1(C)C(N)CCC2(C)C1CCC1(C)C2CC=C2C3CC(C)(C)C(N)C(N)C3(CNC(=O)CC)C(N)CC21C (stereo not shown) [LL1]	moderate
CCC(=O)NCC1(C)C(O)CCC2(C)C1CCC1(C)C2CC=C2C3CC(C)(C)C(O)C(O)C3(CNC(=O)CC)C(O)CC21C (stereo not shown) [LL2]	strong
CCC(=O)NCC1(C)C(N)CCC2(C)C1CCC1(C)C2CC=C2C3CC(C)(C)C(NC(=O)CC)C(N)C3(CN)C(N)CC21C (stereo not shown) [LL3]	moderate
CCC(=O)NCC1(C)C(N)CCC2(C)C1CCC1(C)C2CC=C2C3CC(C)(C)C(NC(=O)CC)C(N)C3(CNC(=O)CC)C(N)CC21C (stereo not shown) [LL4]	weak
